Experiments:
Assay type in all cases: cell-based
CAKI-1 = assay: NCI 60 cell assay, renal CAKI-1; details: Homo sapiens, 48 h; CAKI-1 (renal); drug exposure two days, SRB endpoint; read-out: GI-50 value
Method: (§1) Samples were tested in the standard National Cancer Institute 60-cell line protocol. First, they were tested against all 60 cell lines in a single final concentration of 10 micromolar. Then, they were separately tested in five 10-fold dilutions. The drug exposure was two days, with an SRB endpoint.

SF-295 = assay: NCI 60 cell assay, CNS SF-295; details: Homo sapiens, 48 h; SF-295 (CNS); drug exposure two days, SRB endpoint; read-out: GI-50 value
Method: as §1

UACC-62 = assay: NCI 60 cell assay, melanoma UACC-62; details: Homo sapiens, 48 h; UACC-62 (melanoma); drug exposure two days, SRB endpoint; read-out: GI-50 value
Method: as §1

NCI-H522 = assay: NCI 60 cell assay, NSCLC NCI-H522; details: Homo sapiens, 48 h, drug exposure two days, SRB endpoint, read-out: GI-50 value
Method: as §1

T-47D = assay: NCI 60 cell assay, breast T-47D; details: Homo sapiens, T47D, 48 h; T-47D (breast); drug exposure two days, SRB endpoint; read-out: GI-50 value
Method: as §1

NCI/ADR-RES = assay: NCI 60 cell assay, ovarian NCI/ADR-RES; details: Homo sapiens, 48 h, drug exposure two days, SRB endpoint, read-out: GI-50 value
Method: as §1

SNB-19 = assay: NCI 60 cell assay, CNS SNB-19; details: Homo sapiens, 48 h; SNB-19 (CNS); drug exposure two days, SRB endpoint; read-out: GI-50 value
Method: as §1

UACC-257 = assay: NCI 60 cell assay, melanoma UACC-257; details: Homo sapiens, 48 h; UACC-257 (melanoma); drug exposure two days, SRB endpoint; read-out: GI-50 value
Method: as §1

SK-MEL-2 = assay: NCI 60 cell assay, melanoma SK-MEL-2; details: Homo sapiens, 48 h; SK-MEL-2 (melanoma); drug exposure two days, SRB endpoint; read-out: GI-50 value
Method: as §1

A549/ATCC = assay: NCI 60 cell assay, NSCLC A549/ATCC; details: Homo sapiens, 48 h, drug exposure two days, SRB endpoint, read-out: GI-50 value
Method: as §1

HT29 = assay: NCI 60 cell assay, colon HT29; details: Homo sapiens, HT-29, 48 h, drug exposure two days, SRB endpoint, read-out: GI-50 value
Method: as §1

MOLT-4 = assay: NCI 60 cell assay, leukemia MOLT-4; details: Homo sapiens, 48 h; MOLT-4 (leukemia); drug exposure two days, SRB endpoint; read-out: GI-50 value
Method: as §1

NCI-H322M = assay: NCI 60 cell assay, NSCLC NCI-H322M; details: Homo sapiens, 48 h, drug exposure two days, SRB endpoint, read-out: GI-50 value
Method: as §1

HCT-15 = assay: NCI 60 cell assay, colon HCT-15; details: Homo sapiens, 48 h; HCT-15 (colon); drug exposure two days, SRB endpoint; read-out: GI-50 value
Method: as §1

MCF7 = assay: NCI 60 cell assay, breast MCF7; details: Homo sapiens, 48 h, drug exposure two days, SRB endpoint, read-out: GI-50 value
Method: as §1

UO-31 = assay: NCI 60 cell assay, renal UO-31; details: Homo sapiens, 48 h; UO-31 (renal); drug exposure two days, SRB endpoint; read-out: GI-50 value
Method: as §1

COLO 205 = assay: NCI 60 cell assay, colon COLO 205; details: Homo sapiens, 48 h; COLO 205 (colon); drug exposure two days, SRB endpoint; read-out: GI-50 value
Method: as §1

NCI-H460 = assay: NCI 60 cell assay, NSCLC NCI-H460; details: Homo sapiens, 48 h, drug exposure two days, SRB endpoint, read-out: GI-50 value
Method: as §1

HCT-116 = assay: NCI 60 cell assay, colon HCT-116; details: Homo sapiens, 48 h; HCT-116 (colon); drug exposure two days, SRB endpoint; read-out: GI-50 value
Method: as §1

SF-268 = assay: NCI 60 cell assay, CNS SF-268; details: Homo sapiens, 48 h; SF-268 (CNS); drug exposure two days, SRB endpoint; read-out: GI-50 value
Method: as §1

ACHN = assay: NCI 60 cell assay, renal ACHN; details: Homo sapiens, 48 h, drug exposure two days, SRB endpoint, read-out: GI-50 value
Method: as §1

PC-3 = assay: NCI 60 cell assay, prostate PC-3; details: Homo sapiens, 48 h; PC-3 (prostate); drug exposure two days, SRB endpoint; read-out: GI-50 value
Method: as §1

TK-10 = assay: NCI 60 cell assay, renal TK-10; details: Homo sapiens, 48 h; TK-10 (renal); drug exposure two days, SRB endpoint; read-out: GI-50 value
Method: as §1

DU-145 = assay: NCI 60 cell assay, prostate DU-145; details: Homo sapiens, 48 h; DU-145 (prostate); drug exposure two days, SRB endpoint; read-out: GI-50 value
Method: as §1

HL-60(TB) = assay: NCI 60 cell assay, leukemia HL-60(TB); details: Homo sapiens, 48 h; HL-60(TB) (leukemia); drug exposure two days, SRB endpoint; read-out: GI-50 value
Method: as §1

SK-MEL-5 = assay: NCI 60 cell assay, melanoma SK-MEL-5; details: Homo sapiens, 48 h; SK-MEL-5 (melanoma); drug exposure two days, SRB endpoint; read-out: GI-50 value
Method: as §1

RPMI-8226 = assay: NCI 60 cell assay, leukemia RPMI-8226; details: Homo sapiens, 48 h; RPMI-8226 (leukemia); drug exposure two days, SRB endpoint; read-out: GI-50 value
Method: as §1

OVCAR-3 = assay: NCI 60 cell assay, ovarian OVCAR-3; details: Homo sapiens, 48 h; OVCAR-3 (ovarian); drug exposure two days, SRB endpoint; read-out: GI-50 value
Method: as §1

LOX IMVI = assay: NCI 60 cell assay, melanoma LOX IMVI; details: Homo sapiens, 48 h, drug exposure two days, SRB endpoint, read-out: GI-50 value
Method: as §1

HOP-92 = assay: NCI 60 cell assay, NSCLC HOP-92; details: Homo sapiens, 48 h; HOP-92 (NSCLC); drug exposure two days, SRB endpoint; read-out: GI-50 value
Method: as §1

NCI-H23 = assay: NCI 60 cell assay, NSCLC NCI-H23; details: Homo sapiens, 48 h, drug exposure two days, SRB endpoint, read-out: GI-50 value
Method: as §1

786-0 = assay: NCI 60 cell assay, renal 786-0; details: Homo sapiens, 48 h; 786-0 (renal); drug exposure two days, SRB endpoint; read-out: GI-50 value
Method: as §1

EKVX = assay: NCI 60 cell assay, NSCLC EKVX; details: Homo sapiens, 48 h, drug exposure two days, SRB endpoint, read-out: GI-50 value
Method: as §1

| Compound | GI50 (CAKI-1) | GI50 (SF-295) | GI50 (UACC-62) | GI50 (NCI-H522) | GI50 (T-47D) | GI50 (NCI/ADR-RES) | GI50 (SNB-19) | GI50 (UACC-257) | GI50 (SK-MEL-2) | GI50 (A549/ATCC) | GI50 (HT29) | GI50 (MOLT-4) | GI50 (NCI-H322M) | GI50 (HCT-15) | GI50 (MCF7) | GI50 (UO-31) | GI50 (COLO 205) | GI50 (NCI-H460) | GI50 (HCT-116) | GI50 (SF-268) | other results |
| --- | --- | --- | --- | --- | --- | --- | --- | --- | --- | --- | --- | --- | --- | --- | --- | --- | --- | --- | --- | --- | --- |
| CC1=C2[C@@H](CC1)[C@]1(C)O[C@@](C3CC3)(C[C@H]1OC(=O)CO)[C@H]2OC(=O)C=Cc1ccccc1 [Compound (Is), (3aR,4S,5R,7R,8S)-7-cyclopropyl-5-(2-hydroxyacetoxy)-1,4-dimethyl-2,3,3a,4,5,6,7,8-octahydro-4,7-epoxyazulen-8-yl cinnamate] | 11 µM | 17 µM | 15 µM | 17 µM | 14 µM | 0.071 µM | 19 µM | 16 µM | 19 µM | 14 µM | 17 µM | 16 µM | 17 µM | 14 µM | 13 µM | 0.33 µM | 19 µM | 18 µM | 16 µM | 1.6 µM | GI50 (ACHN): 0.028 µM; GI50 (PC-3): 15 µM; GI50 (TK-10): 19 µM; GI50 (DU-145): 18 µM; GI50 (HL-60(TB)): 12 µM; GI50 (SK-MEL-5): 18 µM; GI50 (RPMI-8226): 20 µM; GI50 (OVCAR-3): 16 µM; GI50 (LOX IMVI): 17 µM; GI50 (HOP-92): 17 µM; GI50 (NCI-H23): 17 µM; GI50 (786-0): 13 µM; GI50 (EKVX): 14 µM |
| CC1=C2[C@@H](CC1)[C@]1(C)O[C@@](c3ccccc3)(C[C@H]1OC(=O)CO)[C@H]2OC(=O)C=Cc1ccccc1 [(Ir), (3aR,4S,5R,7R,8S)-5-(2-hydroxyacetoxy)-1,4-dimethyl-7-phenyl-2,3,3a,4,5,6,7,8-octahydro-4,7-epoxyazulen-8-yl cinnamate] | 13 µM | 14 µM | 15 µM | 17 µM | 11 µM | 0.34 µM | 22 µM | 19 µM | 16 µM | 15 µM | 16 µM | 12 µM | 22 µM | 13 µM | 10 µM | 0.55 µM | 15 µM | 15 µM | 15 µM | 1.4 µM | GI50 (ACHN): 0.035 µM; GI50 (PC-3): 10 µM; GI50 (TK-10): 23 µM; GI50 (DU-145): 17 µM; GI50 (HL-60(TB)): 16 µM; GI50 (SK-MEL-5): 15 µM; GI50 (RPMI-8226): 13 µM; GI50 (OVCAR-3): 15 µM; GI50 (LOX IMVI): 17 µM; GI50 (HOP-92): 14 µM; GI50 (NCI-H23): 17 µM; GI50 (786-0): 14 µM; GI50 (EKVX): 15 µM |
